# In patent US20050123553A1, “Amyloid beta-peptide and methods of use” (priority 2003, published 2005):
# Ends that are not written are not given here.
# Assays:
# [1] = test system: peripheral blood mononuclear cells; test: Primary stimulation of PBMCs with αCD3/CD28 or glatiramer acetate ([3H]thymidine proliferation); type: cell-based, human
# Method: In this study, αCD3/CD28 stimulation was measured as follows. PBMCs were cultured with 1 μg/ml soluble αCD3 plus αCD28 or cell culture medium alone, pulsed with [^3H] thymidine on day 2 after stimulation and incorporation measured 12 hr later. For glatiramer acetate stimulation, cells were cultured with 50 μg/ml GA or cell culture medium alone, and pulsed with [^3H] thymidine on day 6. Mean cpm=average cpm for each group. The average cpm for cells with culture medium alone was 825. […] Proliferative responses were calculated from these subjects. Two-tailed p values were calculated for the mean cpm using the alternate Welch test, assuming Gaussion populations with unequal SD's.
# Primary stimulation with αCD3/CD28 or GA: For […] stimulation frozen PBMCs (2×10^5 cells/well) were cultured in 5 wells (U-bottom 96-well plate) in the presence of 1 μg/ml soluble αCD3 plus αCD28 and in additional 5 wells with cell culture medium alone, pulsed with […] thymidine on day 2 after stimulation and incorporation measured 12 hr later. For glatiramer acetate stimulation, fresh PBMCs were cultured in 5 wells with 50 μg/ml GA or cell culture medium alone, pulsed with [^3H] thymidine on day 6, and incorporation measured 12 hr later.
# [2] = test system: Aβ1-42-reactive T-cell lines; test: Epitope mapping / proliferation of Aβ1-42-reactive T-cell lines; type: cell-based, human; conditions: for Distribution of Aβ T-cell epitopes: Number of T-cell lines / Distribution of Aβ T-cell epitopes: percent: lines from 24 subjects, fine mapping with 15 amino acid overlapping peptides
# Method: Epitope specificity of these 3 T-cell lines using 5 overlapping peptides within Aβ15-42 was further investigated.
# (§1) T-cell lines were then supplemented with 10 μg/ml IL-2 after 48 hours and every 2 days thereafter until they were completely resting. T-cell proliferation was measured 72 hours after stimulation following a 12 hr incubation with [^3H]-thymidine. Supernatants were collected 48 hr after T-cell stimulation, and antigen-induced cytokine production was measured by sandwich ELISA. Recommended pairs of antibodies (coating and detecting) for IL-10 (R&D, Minneapolis, Minn.), INF-γ. Endogen, Woburn, Mass.), IL-13 (PharMingen, (San Diego, Calif.), and TGF-β (Promega, Madison, Wis.) were used according to the manufacturer's instructions. Surface and intracellular staining was performed on Aβ-reactive T-cells after stimulation. All antibodies were purchased from BD Biosciences (San Diego, Calif.) and staining was performed according to the manufacturer's instructions.
# [3] = Fibril formation by quasielastic light-scattering spectroscopy (QLS); type: physicochemical; conditions: phosphate buffer pH 7.4, 3 samples of 10 μg/ml, 5 consecutive days
# Method: Fibril formation was measured in 3 equivalent samples of 10 μg/ml Aβ for 5 consecutive days. […] Nested Aβ peptides (Aβ1-15, Aβ4-18, Aβ7-21, Aβ10-24, Aβ13-27, Aβ16-30, Aβ19-33, Aβ22-36, Aβ25-39, Aβ28-42) and alanine/glycine-substituted peptides were synthesized at Biosource International (Hopkinton, Mass.). Aβ peptides used for T-cell assays were dissolved in DMSO (2 mg/ml). Glatiramer acetate (GA) was obtained at the Brigham and Women's Hospital pharmacy.
# Aβ-reactive T-cell lines = test: Cytokine secretion of Aβ-reactive T-cell lines (sandwich ELISA); type: cell-based, human
# Method: as §1
# [4] = test system: Primary cultures of microglia; test: Aβ uptake and motility of microglia treated with IFN-γ (live confocal imaging); type: cell-based, mouse
# Method: The meningoencephailis we observed was completely dependent on expression of IFN-g in the CNS. […] We therefore established an in vitro system to examine early events associated with microglia activation by IFN-γ and their contribution to uptake of Aβ and specific T-cell activation. Primary cultures of microglia were prepared and live images were obtained by a confocal microscope, as described in Methods. FITC-labeled Aβ was added to the culture for 30 min, cultures were carefully washed, and live images were taken for 30 minutes. […] (FIG. 10B).
# Preparation of cultures of mouse brain microglia: Glial cultures were prepared as described (JI). […]
# Aβ uptake and T-cell stimulation by microglia: PE-labeled microglial cells were cultured in MatTek culture dishes (Ashland, Mass.) for 24 hours in the DMEM-FCS medium. […] Live images were then taken for 30 min with 20 sec intervals by a Zeiss Laser Scanning Confocal Microscope and analyzed by 3D analysis software (Zeiss, Thornwood, N.Y.). […]
# [5] = test system: microglia and resting Aβ-reactive T cells; test: Co-culture of microglia and resting Aβ-reactive T cells; type: cell-based, mouse
# Method: Microglial cells were sorted and cultured for 12 hours in the presence and absence of IFN-γ. […] Representative areas were then extracted (shown in higher power) and analyzed for the pattern of T-cell migration. In the IFN-γ-treated culture, T cells were attracted to microglial cells, indicated by the sharp turns between the cells (FIG. 11B), and made a significant higher average number of contacts with the microglial cells, as compared with the untreated microglial culture (about 2.1 versus about 0.5, P<0.001) (FIG. 11B). […] These contacts are short time synapse formations characteristics of an early event during T-cell stimulation.
# Preparation of cultures of mouse brain microglia: Glial cultures were prepared as described (JI). Briefly, cells were dissociated from the cerebral cortex of 1-day-old C57BL/6 mice after careful removal of meninges tissues, and were cultured in poly-D-lysine (PDL)-coated tissue culture flasks in medium supplemented with Dulbecco's modified Eagle's medium (DMEM), 4 mM L-glutamine, 50 U/ml penicillin, […] streptomycin, 10 mM HEPES, 1 mM sodium pyruvate, 10 mM nonessential amino acids, […] 2-mercaptoethanol (Sigma, St Louis, Mo.), and 10% fetal calf serum (FCS). On day 7, cultures were incubated with 100 pg/ml IFN-γ for 72 hours and on day 10, the entire glial culture was trypsinized and microglia were labeled with PE-conjugated anti-CD11b and sorted using FACS Vantage SE Cell Sorter.
# Aβ uptake and T-cell stimulation by microglia: PE-labeled microglial cells were cultured in MatTek culture dishes (Ashland, Mass.) for 24 hours in the DMEM-FCS medium. […] Live images were then taken for 30 min with 20 sec intervals by a Zeiss Laser Scanning Confocal Microscope and analyzed by 3D analysis software (Zeiss, Thornwood, N.Y.). For the microglia-T-cell coculture experiments, Aβ-reactive T cells were generated as described and labeled with Alexa Flour 488-conjugated anti-mouse CD4. Resting cells were added to the microglia culture together with Aβ1-42.
# Aβ16-30-specific T cells = test: Proliferation of Aβ16-30-specific T cells with alanine/glycine-substituted peptides; type: cell-based, human; conditions: 72 hr
# Text: Because the T-cell epitopes were most frequently localized to Aβ16-30, we further mapped this epitope for each of its constituent amino acids by using alanine-substituted peptides in the T-cell proliferation assay (the naturally occurring alanines at positions 21 and 30 were changed to glycines). […] Substitution of lysine-16, alanine-21, serine-26 or aspargine-27 increased T-cell proliferation by more than 2-fold (Table 4).
# In this experiment, T cells specific to Aβ16-30 were stimulated in the presence of alanine/glycine substituted peptides and autologous PBMCs. T-cell proliferation was measured by [^3H]-thymidine incorporation 72 hr after stimulation. Numbers represent average cpm of each antigen concentration tested (average cpm in the absence of antigen was 911).
# as §1
# [6] = test system: popliteal draining lymph nodes (PLN) T cells; test: Lymph node T-cell proliferation after immunization of mice with Aβ in CFA; type: cell-based, mouse
# Aβ-reactive T cells = test: FACS of activation marker and cytokine expression in an Aβ-reactive T-cell line; type: cell-based, human; conditions: 30 hr after stimulation with irradiated autologous PBMCs
# Method: To further determine the phenotype of Aβ-reactive T cells, a representative T-cell line also was tested by FACS for Th1 and Th2 cytokine expression. […] We further asked whether the cytokine profiles represented primarily Th2 lineages by testing for the expression of INF-γ and IL-13/IL-5 in the same cells.
# as §1
# [7] = αCD3/CD28 1 μg/ml pulsed day 2, GA 50 μg/ml pulsed day 6
# [8] = 48 hr after stimulation, T-cell lines 1, 2, 3
# [9] = App Tg, C57BL6, 12 days after imm.
# Method for APP/IFN-g Tg mice: To determine whether carrying the IA^s allele is sufficient to induce T-cell activation and migration to the CNS of APP-tg mice, B6SJLF1 APP-tg mice line J20, see Methods) were immunized with Aβ10-24 in CFA followed by intravenous injection of PT at the time of immunization and 48 hr later.
# APP/IFN-γ tg mice that were immunized with Aβb 10-24 were analyzed by immunohistochemistry 20 and 30 days after immunization for immune infiltrates associated with Aβ plaques.
# Immunization and measurement of immune responses: Mice were immunized by footpad injection if sacrificed on day 12, for longer periods mice were injected in the flanks. Each mouse received 100 ml of antigen (1 mg/ml), emulsified in an equal volume of complete Freund's adjuvant (CFA). Mice were also injected intravenously with 150 ng pertussis toxin at the time of immunization and 48 hours later.
# Immunohistochemistry and imaging: Cryosections (6 μm) from brains of APP-Tg+ mice were placed onto glass slides and fixed with ice-cold methanol for 2 min followed by 2% PFA at RT for 4 min. Sections were washed once with distilled water for 5 min and twice with PBS containing 0.05% Tween-20. Sections were then incubated for 1 hour at RT with blocking buffer (PBS containing 3% normal goat serum and 2% bovine serum albumin).
substance,measurement,setting,value
YEVHHQKLVFFAEDV [Aβ10-24],Immune infiltrates in the spinal cord,"APP/IFN-g Tg mice; mouse, in vivo",not observed
same,meningoencephalitis,"APP/IFN-g Tg mice; mouse, in vivo",strong meningoencephalitis
Glatiramer acetate,subjects that showed proliferation,"[1]; all groups tested, 50 μg/ml GA",90%
same,"Proliferation, Mean cpm ± SEM, Adult",[1]; [7],"35,342 ± 7,893 cpm"
same,"Proliferation, Mean cpm ± SEM, Alzheimer's disease subjects",[1]; [7],"19,403 ± 3,078 cpm"
same,"Proliferation, Mean cpm ± SEM, Elderly",[1]; [7],"27,311 ± 4,781 cpm"
"Aβ1-40: Aβ1-40 synthetic peptide, one of the two major forms of Aβ protein [reference compound]",reactivity of Aβ28-42-reactive T-cell lines,[2],unreactive
same,fibril formation / aggregation,[3],Slight aggregation was detected in only one sample
"Aβ1-28: overlapping N-terminal fragment of Aβ1-42, residues 1-28",Distribution of Aβ T-cell epitopes: Number of T-cell lines,[2],2
same,Distribution of Aβ T-cell epitopes: percent,[2],8%
same,IFN-γ secretion,Aβ-reactive T-cell lines; [8],not IFN-γ
same,IL-13 secretion,Aβ-reactive T-cell lines; [8],high levels
IFN-γ: cytokine used to treat microglial cultures (100 pg/ml),Aβ uptake by microglia,"[4]; pretreated versus untreated cultures, FITC-labeled Aβ 30 min",significantly enhanced
same,filipodia formation (microglia motility),[4]; treated versus untreated cultures,longer and occurred with higher frequency
same,average number of contacts of T cells with the microglial cells,[5]; IFN-γ-treated culture,about 2.1
same,motility of the T cells,[5]; IFN-γ-treated versus untreated culture,significant increase
same,density of T cells on microglia,"[5]; IFN-γ-treated versus untreated microglia, Aβ1-42 as antigen",higher density
"Aβ16-30: nested Aβ peptide, residues 16-30 (KLVFFAEDVGSNKGA; Amyloid-beta protein 42; UniProt P05067 687-701, looked up, fragment)",frequency of positive T-cell lines induced,[2],highest frequency
same,Distribution of Aβ T-cell epitopes: Number of T-cell lines,[2],10
same,Distribution of Aβ T-cell epitopes: percent,[2],42%
same,CD4 (cells/mm^2 ± SEM),APP/IFN-g Tg mice; [9],0 cells/mm^2
same,CD11b (cells/mm^2 ± SEM),APP/IFN-g Tg mice; [9],0 cells/mm^2
same,"T-cell proliferation, average cpm",Aβ16-30-specific T cells; Peptide 0.1 μg/ml,1648 cpm
same,"T-cell proliferation, average cpm",Aβ16-30-specific T cells; Peptide 1 μg/ml,6780 cpm
same,"T-cell proliferation, average cpm",Aβ16-30-specific T cells; Peptide 10 μg/ml,17339 cpm
same,Th2 response,Aβ-reactive T-cell lines,elicit a Th2 response
same,response compared with that induced by Aβ1-42,"[6]; 10-24 in SJL, 16-30 in C57BL6 mice",equivalent
same,T-cell proliferation with overlapping peptides,"[6]; C57BL6 mice, immunized with human Aβ1-42",induced proliferation
same,recall proliferation of LN-derived T cells in vitro,[6]; SJL mice immunized with human Aβ10-24,not
"Aβ15-42: overlapping C-terminal fragment of Aβ1-42, residues 15-42 (QKLVFFAEDVGSNKGAIIGLMVGGVVIA; Amyloid-beta protein 42; UniProt P05067 686-713, looked up, fragment)",Distribution of Aβ T-cell epitopes: Number of T-cell lines,[2],22
same,Distribution of Aβ T-cell epitopes: percent,[2],92%
same,expression of the CD69 activation marker on CD4+ cells,Aβ-reactive T cells,increased expression
same,Th2 response,Aβ-reactive T-cell lines,elicit a Th2 response
